{"source": "patent US20170168073A1", "about": "“CHALCONE-UREA DERIVATIVES AS INSULIN SENSORS” (Agency for Science, Technology and Research, priority 2013, published 2017)", "key": {"[1]": {"test_system": "serum albumin", "test": "Selectivity of fluorescence response to insulin over serum albumins (BSA, HSA, HSA lipid free)", "assay_type": "binding", "conditions": "over serum albumin (BSA, HSA, HSA lipid free; FIG. 1c)", "from_the_text": "FIG. 1c is a graph showing the selectivity of Insulin Green to insulin over bovine serum albumin (BSA), human serum albumin (HSA) and HSA lipid free."}, "[2]": {"target": "insulin (Homo sapiens, UniProt P01308)", "sequence (P01308 25-54 limits assumed, species assumed)": "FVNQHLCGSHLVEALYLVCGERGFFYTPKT", "sequence (P01308 90-110 limits assumed, species assumed)": "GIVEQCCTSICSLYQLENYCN", "test": "Fluorescence response of CLU compounds to insulin", "assay_type": "binding", "method": "All the reagents and solvents were purchased from Aldrich, Alfa and Acros organics and used without further purification. All reactions were performed in oven-dried glassware under a positive pressure of nitrogen. Analytical TLC was carried out on Merck 60 F254 silica gel plate (0.25 mm layer thickness) and visualization was done with UV light. Column chromatography was performed on Merck 60 silica gel (230-400 mesh). NMR spectra were recorded on a Bruker Avance 300 NMR spectrometer. Chemical shifts are reported as 6 in units of parts per million (ppm) and coupling constants are reported as a J value in Hertz (Hz). Mass of all the compounds was determined by LC-MS of Agilent Technologies with an electrospray ionization source. Spectroscopic measurements were performed on a fluorometer and UV/VIS instrument, Synergy 4 of bioteck company and Gemini XS fluorescence plate reader. The slit width was 1 nm for both excitation and emission.\nThe present invention includes the synthesis of fluorescent chalcone-urea library (CLU), which was prepared on solid support. The CLU library was screened against four different concentrations of insulin (0.2, 0.1, 0.05 and 0.025 mg/mL) in HEPES buffer (20 mM, pH=7.4). Based on fluorescent intensity, 5 hits with more than 50-fold increase were selected (Table 2). CLU-381 was further derivatized due to the synthetic convenience to render 8 derivatives (Table 3)."}}}
{"smiles": "COc1ccc(CNC(=O)Nc2ccc(C(=O)/C=C/c3ccc(N(CCO)CCO)cc3)cc2)cc1", "note": "[Insulin Green]", "values": [{"measurement": "selectivity for insulin over other proteins", "setting": "[1]", "result": "good selectivity over other proteins"}, {"measurement": "fluorescent increase to insulin", "setting": "[2]; 200 μg/mL insulin (FIG. 1a)", "result": 94, "unit": "fold"}, {"measurement": "responsiveness to insulin among the 8 CLU-381 derivatives", "setting": "[2]; 8 derivatives tested against insulin", "result": "most responsive compound"}]}
